Data as given in US6979681B2, “Half-sandwich ruthenium (II) compounds comprising nitrogen containing ligands for treatment of cancer” (University Court, The University of Edinburgh, priority 1999, dated 2005).

Tested on: A2780 ovarian cancer cell line
Assay: Cell growth inhibition of Ru compounds on A2780 ovarian cancer cell line (24-well trays, Coulter counter)
Type: cell-based
Details: 24 hours drug exposure, further 3 days growth, cell count
Protocol: The compounds are tested on 24-well trays. Cells growing in a flask are harvested just before they become confluent, counted using a haemocytometer and diluted down with media to a concentration of 1×10^4 cells per ml. The cells are then seeded in the 24-well trays at a density of 1×10^4 cells per well (i.e. 1 ml of the diluted cell suspension is added to each well). The cells are then left to plate down and grow for 72 hours before adding the compounds of the invention.
The Ru complexes are weighed out and made up to a concentration of 1 mg/ml with deionised water then sonicated until they go into solution. The appropriate volume of the Ru solution is added to 5 ml of media to make it up to a concentration of 100 μM for each drug. This 100 μM solution is then serially diluted to make up the 10 μM, 1 μM and 0.1 μM solutions.
The media is removed from the cells and replaced with 1 ml of the media dosed with drug. Each concentration is done in duplicate. A set of control wells are left on each plate, containing media without drug.
The cells are left exposed to the drugs for 24 hours and then washed with phosphate buffered saline before fresh media is added.
They are allowed to grow on for a further 3 days before being counted using a Coulter counter.
Preparing cells for counting:
Media is removed and 1 ml of PBS is added to the cells.
250 μl of trypsin is added and cells left in incubator for a few minutes to allow the monolayers to detach.
Once trypsinised, 250 μl of media is added to each well to neutralise the trypsin. 200 μl of this suspension is added to 10 ml of NaCl for counting.
Using the above protocol, a number of compounds of the invention were tested on A2780 ovarian cancer cell line.

| Molecule | IC50 [µM] |
| --- | --- |
| F[P-](F)(F)(F)(F)F.[Cl][Ru-]1[NH2+]CC[NH2+]1.c1ccccc1 [Example 3, [(η^6-C6H6)RuCl(H2NCH2CH2NH2—N,N)]^+[PF6]^−] | 8 |
| F[P-](F)(F)(F)(F)F.[I][Ru-]1[NH2+]CC[NH2+]1.c1ccccc1 [Example 4, [(η^6-C6H6)RuI(H2NCH2CH2NH2—N,N)]^+[PF6]^−] | 20 |
| COC(=O)c1ccccc1.F[P-](F)(F)(F)(F)F.[Cl][Ru-]1[NH2+]CC[NH2+]1 [Example 8, [η^6-C6H5CO2CH3)RuCl(H2NCH2CH2NH2—N,N)]^+[PF6]^−] | 55 |
| F[P-](F)(F)(F)(F)F.[Cl][Ru-]1[NH2+]CC[NH2+]1.c1ccc(-c2ccccc2)cc1 [Example 9, [(η^6-C6H5C6H5)RuCl(H2NCH2CH2NH2—N,N)]^+[PF6]^−] | 6 |
| CC[NH+]1CC[NH2+][Ru-]1[Cl].F[P-](F)(F)(F)(F)F.c1ccc(-c2ccccc2)cc1 [Example 10, {(η^6-C6H5C6H5)RuCl[H2N(CH2)2NH(CH2CH3)]}^+PF6^−] | 6 |
| F[P-](F)(F)(F)(F)F.F[P-](F)(F)(F)(F)F.[Cl][Ru-]1[NH2+]CC[NH+]1CCCCCC[NH+]1CC[NH2+][Ru-]1[Cl].c1ccc(-c2ccccc2)cc1.c1ccc(-c2ccccc2)cc1 (centres unmarked) [Example 11, {[η^6-C6H5C6H5)RuCl]2[H2N(CH2)2NH(CH2)6NH(CH22NH2—N,N′,N″,N′″]}^2+2PF6^−] | 5 |
| [(η^6-p-cymene)RuBr(CH3CN)2]^+[PF6]^− [Example 2] | 8 |
| [(η^6-p-cymene)RuCl2(isonicotinamide)] [Example 7] | 11 |
| [(η^6-p-cymene)RuCl(CH3CN)2]^+[PF6]^− [Example 1] | 7 |
| [(η^6-p-cymene)RuCl(H2NCH2CH2NH2—N,N)]^+[PF6]^− [Example 5] | 8 |
| [(η^6-p-cymene)RuI(H2NCH2CH2NH2—N, N)]^+[PF6]^− [Example 6] | 6 |
